According to patent EP1054888B1 (priority 1998, dated 1999):
≈ marks a conversion by molar mass, not a printed value.

Columns and labels:
Test in all cases: microbe, parasite or virus in culture
Type in all cases: cell-based
Botrytis cinerea = details: read-out: MIC (Minimum Inhibitory Concentration) BOTRCI
Alternaria solani = details: read-out: MIC (Minimum Inhibitory Concentration) ALTESO
[1] = tested on: Magnaporthe grisea f. sp. oryzae; details: Pyricularia oryzae, read-out: MIC (Minimum Inhibitory Concentration) PYRIOR, Table II; total inhibition of mycelial growth, V8 juice nutrient solution, 6-12 days at 18-25°C, visual inspection
Phytophthora infestans = details: read-out: MIC (Minimum Inhibitory Concentration) PHYTIN
Rhizoctonia solani = details: read-out: MIC (Minimum Inhibitory Concentration) RHIZSO
Leptosphaeria nodorum = details: Parastagonospora nodorum, read-out: MIC (Minimum Inhibitory Concentration) LEPTNO

Row | Structure (SMILES) | MIC (Botrytis cinerea) | MIC (Alternaria solani) | MIC [1] | MIC (Phytophthora infestans) | MIC (Rhizoctonia solani) | MIC (Leptosphaeria nodorum)
1 | CCCc1c(-c2c(F)cc(OC)cc2F)c(Cl)nc2ncnn12 [Example 93] | 0.2 µg/mL (≈ 0.59 µM) | 0.2 µg/mL (≈ 0.59 µM) | < 0.05 µg/mL | 100 µg/mL (≈ 295 µM) | 0.39 µg/mL (≈ 1.15 µM) | 6.25 µg/mL (≈ 18.5 µM)
2 | COc1nc2ncnn2c([C@H]2CC[C@@H](F)CC2)c1-c1c(F)cc(F)cc1F [Example 75] | 6.25 µg/mL (≈ 16.4 µM) | 1.56 µg/mL (≈ 4.1 µM) | 0.39 µg/mL (≈ 1.03 µM) | > 100 µg/mL | > 100 µg/mL | 12.5 µg/mL (≈ 32.9 µM)
3 | CCCc1c(-c2c(F)cc(OC)cc2F)c(OC)nc2ncnn12 [Example 98] | 3.13 µg/mL (≈ 9.36 µM) | 1.56 µg/mL (≈ 4.67 µM) | 0.2 µg/mL (≈ 0.598 µM) | > 100 µg/mL | 1.56 µg/mL (≈ 4.67 µM) | 100 µg/mL (≈ 299 µM)
4 | COc1cc(F)c(-c2c(Cl)nc3ncnn3c2C2CCC(OC(C)=O)CC2)c(F)c1 (stereo not drawn) [Example 85] | 1.56 µg/mL (≈ 3.57 µM) | 0.78 µg/mL (≈ 1.79 µM) | 0.78 µg/mL (≈ 1.79 µM) | 25 µg/mL (≈ 57.2 µM) | > 100 µg/mL | 6.25 µg/mL (≈ 14.3 µM)
5 | COc1cc(F)c(-c2c(OC)nc3ncnn3c2CC(C)C)c(F)c1 [Example 100] | 0.78 µg/mL (≈ 2.24 µM) | 0.39 µg/mL (≈ 1.12 µM) | < 0.05 µg/mL | > 100 µg/mL | 1.56 µg/mL (≈ 4.48 µM) | > 100 µg/mL
6 | COc1cc(F)c(-c2c(Cl)nc3ncnn3c2C2CC=CCC2)c(F)c1 (stereo not drawn) [Example 74] | < 0.05 µg/mL | < 0.05 µg/mL | < 0.05 µg/mL | > 100 µg/mL | 0.39 µg/mL (≈ 1.04 µM) | 0.78 µg/mL (≈ 2.07 µM)
7 | CN1C=C(c2c(-c3c(F)cc(F)cc3F)c(Cl)nc3ncnn23)CCC1 [Example 6, 5-chloro-7-(N-methyl-2,3-dehydropiperid-3-yl)-6-(2,4,6-trifluorophenyl)-1,2,4-triazolo[1,5a]pyrimidine] | 25 µg/mL (≈ 65.8 µM) | 3.13 µg/mL (≈ 8.24 µM) | 0.78 µg/mL (≈ 2.05 µM) | > 100 µg/mL | > 100 µg/mL | 25 µg/mL (≈ 65.8 µM)
8 | COc1cc(F)c(-c2c(Cl)nc3ncnn3c2[C@H]2CC[C@@H](F)CC2)c(F)c1 [Example 87] | < 0.05 µg/mL | < 0.05 µg/mL | < 0.05 µg/mL | > 100 µg/mL | > 100 µg/mL | 0.39 µg/mL (≈ 0.983 µM)
9 | CCCCc1c(-c2c(F)cc(OC)cc2F)c(Cl)nc2ncnn12 [Example 96] | 0.1 µg/mL (≈ 0.283 µM) | < 0.05 µg/mL | < 0.05 µg/mL | > 100 µg/mL | 0.78 µg/mL (≈ 2.21 µM) | 3.13 µg/mL (≈ 8.87 µM)
10 | COc1cc(F)c(-c2c(OC)nc3ncnn3c2C2CCCCC2)c(F)c1 [Example 69] | < 0.05 µg/mL | < 0.05 µg/mL | < 0.05 µg/mL | > 100 µg/mL | 3.13 µg/mL (≈ 8.36 µM) | 1.56 µg/mL (≈ 4.17 µM)
11 | Fc1cc(F)c(-c2c(Cl)nc3ncnn3c2[C@H]2CC[C@@H](F)CC2)c(F)c1 [Example 71] | 0.2 µg/mL (≈ 0.52 µM) | < 0.05 µg/mL | < 0.05 µg/mL | > 100 µg/mL | 6.25 µg/mL (≈ 16.2 µM) | 0.78 µg/mL (≈ 2.03 µM)
12 | COc1cc(F)c(-c2c(OC)nc3ncnn3c2[C@H]2CC[C@@H](F)CC2)c(F)c1 [Example 89] | 1.56 µg/mL (≈ 3.98 µM) | < 0.05 µg/mL | < 0.05 µg/mL | > 100 µg/mL | 12.5 µg/mL (≈ 31.9 µM) | 6.25 µg/mL (≈ 15.9 µM)
13 | COc1cc(F)c(-c2c(Cl)nc3ncnn3c2C2CCCO2)c(F)c1 (stereo not drawn) [Example 95] | 0.78 µg/mL (≈ 2.13 µM) | 0.2 µg/mL (≈ 0.545 µM) | 0.1 µg/mL (≈ 0.273 µM) | 100 µg/mL (≈ 273 µM) | 3.13 µg/mL (≈ 8.53 µM) | 3.13 µg/mL (≈ 8.53 µM)
14 | COc1cc(F)c(-c2c(Cl)nc3ncnn3c2CC(C)C)c(F)c1 [Example 94] | 0.2 µg/mL (≈ 0.567 µM) | 0.1 µg/mL (≈ 0.283 µM) | < 0.05 µg/mL | > 100 µg/mL | 0.2 µg/mL (≈ 0.567 µM) | 3.13 µg/mL (≈ 8.87 µM)
15 | COc1cc(F)c(-c2c(OC)nc3ncnn3c2C2CCCC2)c(F)c1 [Example 99] | 0.78 µg/mL (≈ 2.16 µM) | 0.39 µg/mL (≈ 1.08 µM) | 0.39 µg/mL (≈ 1.08 µM) | > 100 µg/mL | 1.56 µg/mL (≈ 4.33 µM) | > 100 µg/mL
16 | CC(=O)OC1CCC(c2c(-c3c(F)cc(F)cc3F)c(Cl)nc3ncnn23)CC1 (stereo not drawn) [Example 84] | 12.5 µg/mL (≈ 29.4 µM) | 3.13 µg/mL (≈ 7.37 µM) | 3.13 µg/mL (≈ 7.37 µM) | > 100 µg/mL | 100 µg/mL (≈ 235 µM) | 12.5 µg/mL (≈ 29.4 µM)
